SMILES strings stand for the structures.

The target in this test is T1, glucocorticoid receptor (Homo sapiens, UniProt P04150).
T1 construct: expressed in transfected cells
T1 sequence (P04150 524-758 limits assumed): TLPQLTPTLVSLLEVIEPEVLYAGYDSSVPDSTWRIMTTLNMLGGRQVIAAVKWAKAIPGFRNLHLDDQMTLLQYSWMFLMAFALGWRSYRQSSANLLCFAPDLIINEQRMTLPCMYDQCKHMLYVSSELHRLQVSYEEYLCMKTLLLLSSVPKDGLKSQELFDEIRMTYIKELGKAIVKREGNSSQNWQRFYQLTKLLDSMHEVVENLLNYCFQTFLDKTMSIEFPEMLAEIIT
Briefly: Agonistic mode of action on the glucocorticoid receptor (CHO-Gal4/GR luciferase reporter cell line). The test is classed as cell-based. Particulars: range class observed in the agonistic assay or the antagonistic assay (CHO-Gal4/GR reporter cells); table does not say which mode applies per example. A digest of the protocol:
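CHO cells stably carrying GAL4 DBD–GR ligand-binding-domain fusion and GAL4-UAS firefly luciferase reporter, 5000 cells/well grown 24 h, then compounds added in Opti-MEM at 8 half-log concentrations from 10 μM to 0.003 μM (0.5% DMSO), quadruplicates. Agonist-induced luminescence read on FLIPR Tetra; EC50 calculated.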

Turning to `Cc1nnc2n1-c1c(cc(F)c(-c3cc(F)cc4c3ccn4S(C)(=O)=O)c1C(F)(F)F)NC2(C)C` [Example 37, 7-fluoro-8-(6-fluoro-1-(methylsulfonyl)-1H-indol-4-yl)-1,4,4-trimethyl-9-(trifluoromethyl)-4,5-dihydro-[1,2,4]triazolo[4,3-a]quinoxaline], the IC50 or EC50 (agonist or antagonist mode not specified) is < 0.1 µM. In turn, `COCCn1ccc2c(-c3c(F)cc4c(c3OC)-n3c(C)nnc3C(C)(C)N4)cccc21` [Example 281, 7-Fluoro-9-methoxy-8-[1-(2-methoxy-ethyl)-1H-indol-4-yl]-1,4,4-trimethyl-5H-[1,2,4]triazolo[4,3-a]quinoxaline] came in with an IC50 or EC50 (agonist or antagonist mode not specified) of 0.1 to 1 µM.

Compound `Cc1nnc2n1-c1c(cc(OC(F)F)c(-c3cccc4c3ccn4CC(F)F)c1F)NC2(C)C` [Example 393, 8-[1-(2,2-Difluoro-ethyl)-1H-indol-4-yl]-7-(difluoro-methoxy)-9-fluoro-1,4,4-trimethyl-5H-[1,2,4]triazolo [4,3-a]quinoxaline] yielded an IC50 or EC50 (agonist or antagonist mode not specified) of 1 to 15 µM. In turn, `COCCn1ccc2c(-c3c(OC(F)(F)F)cc4c(c3C)-n3c(C)nnc3C(C)(C)N4)cccc21` [Example 460, 8-[1-(2-Methoxy-ethyl)-1H-indol-4-yl]-1,4,4,9-tetramethyl-7-(trifluoromethyloxy)-5H-[1,2,4]triazolo[4,3-a]quinoxaline] gave an IC50 or EC50 (agonist or antagonist mode not specified) of 0.1 to 1 µM. `Cc1nnc2n1-c1c(cc(F)c(-c3cccc4c3cnn4C(=O)OC(C)(C)C)c1F)NC2(C)C` [Example 238, 4-(7,9-Difluoro-1,4,4-trimethyl-5H-[1,2,4]triazolo[4,3-a]quinoxalin-8-yl)-1H-indazole-1-carboxylic acid tert-butyl ester]: the IC50 or EC50 (agonist or antagonist mode not specified) was in the range of 0.1 to 1 µM.

The compound `Cc1c(-c2cccc3c(C)n[nH]c23)c(Cl)cc2c1-n1c(C)nnc1C(C)(C)N2` [Example 368, 7-Chloro-1,4,4,9-tetramethyl-8-(3-methyl-1H-indazol-7-yl)-5H-[1,2,4]triazolo[4,3-a]quinoxaline] returned an IC50 or EC50 (agonist or antagonist mode not specified) of 0.1 to 1 µM. The result for `Cc1nnc2n1-c1c(cc(F)c(-c3cccc4c3ccn4CC3CC3)c1F)NC2(C)C` [Example 202, 8-[1-(Cyclopropyl-methyl)-1H-indol-4-yl]-7,9-difluoro-1,4,4-trimethyl-5H-[1,2,4]triazolo[4,3-a]quinoxaline] reads < 0.1 µM. The result for `Cc1c(-c2ccc(F)c3[nH]ncc23)c(F)cc2c1-n1c(C)nnc1C(C)(C)N2` [Example 524, 7-Fluoro-8-(7-fluoro-1H-indazol-4-yl)-1,4,4,9-tetramethyl-5H-[1,2,4]triazolo[4,3-a]quinoxaline] reads 0.1 to 1 µM. Consider `Cc1cc(-c2c(F)cc3c(c2F)-n2c(C)nnc2C(C)(C)N3)c2ccn(S(C)(=O)=O)c2c1` [Example 492, 7,9-Difluoro-1,4,4-trimethyl-8-(6-methyl-1-methylsulfonyl-1H-indol-4-yl)-5H-[1,2,4]triazolo [4,3-a]quinoxaline], for which the IC50 or EC50 (agonist or antagonist mode not specified) was < 0.1 µM. In the case of `COc1cc2c(c(F)c1-c1cccc3[nH]ccc13)-n1c(C)nnc1C(C)(C)N2` [Example 256, 9-Fluoro-8-(1H-indol-4-yl)-7-methoxy-1,4,4-trimethyl-5H-[1,2,4]triazolo[4,3-a]quinoxaline] it was 1 to 15 µM; in that of `CCS(=O)(=O)n1ncc2c(-c3c(F)cc4c(c3C(F)(F)F)-n3c(C)nnc3C(C)(C)N4)cc(F)cc21` [Example 448, 8-[1-(Ethylsulfonyl)-6-fluoro-1H-indazol-4-yl]-7-fluoro-1,4,4-trimethyl-9-(trifluoromethyl)-5H-[1,2,4]triazolo[4,3-a]quinoxaline], 0.1 to 1 µM; in that of `COCCn1ccc2c(-c3c(Cl)cc4c(c3F)-n3c(C)nnc3C(C)(C)N4)cccc21` [Example 280, 7-Chloro-9-fluoro-8-[1-(2-methoxy-ethyl)-1H-indol-4-yl]-1,4,4-trimethyl-5H-[1,2,4]triazolo[4,3-a]quinoxaline], 1 to 15 µM. The result for `Cc1c(-c2ccc(C#N)c3[nH]ccc23)c(F)cc2c1-n1c(C)nnc1C(C)(C)N2` [Example 534, 4-(7-Fluoro-1,4,4,9-tetramethyl-5H-[1,2,4]triazolo[4,3-a]quinoxalin-8-yl)-1H-indole-7-carbonitrile] reads 0.1 to 1 µM; that for `Cc1cc2c(c(C)c1-c1cc(F)cc3c1cnn3S(C)(=O)=O)-n1c(C)nnc1C(C)(C)N2` [Example 373, 8-(6-Fluoro-1-methylsulfonyl-1H-indazol-4-yl)-1,4,4,7,9-pentamethyl-5H-[1,2,4]triazolo[4,3-a]quinoxaline], 0.1 to 1 µM. The result for `Cc1c(-c2ccc(F)c3[nH]ccc23)c(F)cc2c1-n1c(C)nnc1C(C)(C)N2` [Example 504, 7-Fluoro-8-(7-fluoro-1H-indol-4-yl)-1,4,4,9-tetramethyl-5H-[1,2,4]triazolo[4,3-a]quinoxaline] reads 0.1 to 1 µM; that for `COC(=O)CCn1ccc2c(-c3c(F)cc4c(c3F)-n3c(C)nnc3C(C)(C)N4)cccc21` [Example 219, 3-[4-(7,9-Difluoro-1,4,4-trimethyl-5H-[1,2,4]triazolo[4,3-a]quinoxalin-8-yl)-1H-indol-1-yl]-propionic acid methyl ester], 1 to 15 µM; that for `Cc1c(-c2cc(F)cc3c2ccn3S(C)(=O)=O)ccc2c1-n1c(C)nnc1C(C)(C)N2` [Example 453, 8-(6-Fluoro-1-methylsulfonyl-1H-indol-4-yl)-1,4,4,9-tetramethyl-5H-[1,2,4]triazolo[4,3-a]quinoxaline], < 0.1 µM.

`Cc1c(-c2cccc3c2cnn3S(C)(=O)=O)c(Cl)cc2c1-n1c(C)nnc1C(C)(C)N2` [Example 386, 7-Chloro-1,4,4,9-tetramethyl-8-(1-methylsulfonyl-1H-indazol-4-yl)-5H-[1,2,4]triazolo[4,3-a] quinoxaline] had an IC50 or EC50 (agonist or antagonist mode not specified) of 1 to 15 µM. Compound `Cc1c(-c2cc(F)cc3c2ccn3CCO)c(OC(F)(F)F)cc2c1-n1c(C)nnc1C(C)(C)N2` [Example 471, 2-[6-Fluoro-4-[1,4,4,9-tetramethyl-7-(trifluoromethyloxy)-5H-[1,2,4]triazolo[4,3-a]quinoxalin-8-yl]-1H-indol-1-yl]-ethanol] showed an IC50 or EC50 (agonist or antagonist mode not specified) of 0.1 to 1 µM. In the case of `Cc1nnc2n1-c1c(cc(F)c(-c3ccc(F)c4[nH]ccc34)c1C(F)(F)F)NC2(C)C` [Example 505, 7-Fluoro-8-(7-fluoro-1H-indol-4-yl)-1,4,4-trimethyl-9-(trifluoromethyl)-5H-[1,2,4]triazolo[4,3-a]quinoxaline] it was 0.1 to 1 µM; in that of `Cc1nnc2n1-c1c(cc(F)c(-c3cccc4c3ccn4CC(=O)N(C)C)c1F)NC2(C)C` [Example 212, 2-[4-(7,9-Difluoro-1,4,4-trimethyl-5H-[1,2,4]triazolo[4,3-a]quinoxalin-8-yl)-1H-indol-1-yl]-N,N-dimethyl-acetamide], 1 to 15 µM.

`COCCn1ccc2c(-c3c(F)cc4c(c3F)-n3c(C)nnc3C(C)(C)N4)cccc21` [Example 204, 7,9-Difluoro-8-[1-(2-methoxy-ethyl)-1H-indol-4-yl]-1,4,4-trimethyl-5H-[1,2,4]triazolo[4,3-a]quinoxaline] gave an IC50 or EC50 (agonist or antagonist mode not specified) of 0.1 to 1 µM. Turning to `Cc1nnc2n1-c1c(cc(F)c(-c3cc(F)cc4c3ccn4S(C)(=O)=O)c1C(F)F)NC2(C)C` [Example 390, 9-(Difluoro-methyl)-7-fluoro-8-(6-fluoro-1-methylsulfonyl-1H-indol-4-yl)-1,4,4-trimethyl-5H-[1,2,4]triazolo[4,3-a]quinoxaline], the IC50 or EC50 (agonist or antagonist mode not specified) was < 0.1 µM.

`Cc1c(-c2ccc(Cl)c3c2ccn3S(C)(=O)=O)c(F)cc2c1-n1c(C)nnc1C(C)(C)N2` [Example 525, 8-(7-Chloro-1-methylsulfonyl-1H-indol-4-yl)-7-fluoro-1,4,4,9-tetramethyl-5H-[1,2,4]triazolo [4,3-a]quinoxaline] displayed an IC50 or EC50 (agonist or antagonist mode not specified) of 0.1 to 1 µM. Regarding `CC#Cc1c[nH]c2c(-c3c(F)cc4c(c3C)-n3c(C)nnc3C(C)(C)N4)cccc12` [Example 28, 7-fluoro-1,4,4,9-tetramethyl-8-(3-(prop-1-yn-1-yl)-1H-indol-7-yl)-4,5-dihydro-[1,2,4]triazolo[4,3-a]quinoxaline], the IC50 or EC50 (agonist or antagonist mode not specified) was < 0.1 µM. As to `COc1cc2c(c(C)c1-c1cc(F)cc3c(C)c[nH]c13)-n1c(C)nnc1C(C)(C)N2` [Example 345, 8-(5-Fluoro-3-methyl-1H-indol-7-yl)-7-methoxy-1,4,4,9-tetramethyl-5H-[1,2,4]triazolo[4,3-a]quinoxaline], the IC50 or EC50 (agonist or antagonist mode not specified) lay in the range of 0.1 to 1 µM.

In the case of `Cc1nnc2n1-c1c(cc(F)c(-c3cccc4c3ccn4S(=O)(=O)C3CCCC3)c1F)NC2(C)C` [Example 201, 8-[1-(Cyclopentylsulfonyl)-1H-indol-4-yl]-7,9-difluoro-1,4,4-trimethyl-5H-[1,2,4]triazolo[4,3-a]quinoxaline], the IC50 or EC50 (agonist or antagonist mode not specified) lay within 1 to 15 µM. The result for `Cc1nnc2n1-c1c(cc(F)c(-c3ccc(C#N)c4[nH]ccc34)c1C(F)(F)F)NC2(C)C` [Example 531, 4-[7-Fluoro-1,4,4-trimethyl-9-(trifluoromethyl)-5H-[1,2,4]triazolo[4,3-a]quinoxalin-8-yl]-1H-indole-7-carbonitrile] reads 0.1 to 1 µM.
